Results: article PMC11224403, “Des-acyl ghrelin reduces alcohol intake and alcohol-induced reward in rodents” (Translational Psychiatry, 2024)

Assays:
NET = test: Transporter inhibition in recombinant cell line, NET; format: cell-based, human; settings: 8.3 µM DAG; recombinant cells, 3 h incubation, fluorescence dye
dopamine in NAc shell = test: In vivo microdialysis, dopamine release in NAc shell; parameters: species or system Wistar rats; settings: n = 8 per group
Text: Male and female Rcc Han Wistar rats (8–12 weeks old at arrival; Envigo, Horst, Netherlands) were used for the alcohol drinking and locomotor activity experiments as they drink alcohol to intoxicating levels. For in vivo microdialysis studies male Wistar rats (Charles River, Calco, Italy) were used as they display robust dopamine levels in NAc shell after alcohol injection. […] All rodents were allowed to habituate to the animal facility at least one week before they entered an experiment. […] The sample sizes of each experiment were based on previous experience in which statistical significance has been detected. The person who conducted the experiments, and analyzed the collected data was aware of the treatment allocation. Only preset exclusion criteria were used when analyzing the data obtained in attempts to exclude confounding factors in analyzing data. In the alcohol drinking experiments leaking bottles and low alcohol consumption (<3.0 g/kg for males; <3.5 g/kg for females) were preset exclusion criteria. The preset exclusion criterion in the ex vivo HPLC-EC, ELISA, and recombinant cell line experiments was contamination of the sample. Misplaced probes, technical difficulties, and damages to the surgery area were preset exclusion criteria for the in vivo microdialysis experiment. Intra-cage male aggression was the preset exclusion criterion for the locomotor activity and CPP experiments. To minimize tentative confounding factors, the order of treatments was stratified, with treatments being mixed for each animal cage and for each apparatus used as well as balancing the alcohol intake between future treatment groups. […]
The data from drinking experiments were analyzed by unpaired t-test or repeated two-way ANOVA. A two-tailed unpaired t-test analyzed the ELISA, ex vivo HPLC-EC, and cFOS data. […] A one-way ANOVA with Bonferroni post hoc tests and unpaired t-test analyzed the locomotor activity and CPP data, respectively. The in vivo microdialysis experiments were evaluated by a repeated two-way ANOVA followed by the Bonferroni post hoc test.

male and female rats = test: Locomotor activity test, DAG per se, rats; format: in vivo, Rcc Han Wistar rats; settings: DAG 0.5, 1.0 or 2.0 mg/kg, 60 min recording, n = 5–6 per group
Text: Male and female Rcc Han Wistar rats (8–12 weeks old at arrival; Envigo, Horst, Netherlands) were used for the alcohol drinking and locomotor activity experiments as they drink alcohol to intoxicating levels. For in vivo microdialysis studies male Wistar rats (Charles River, Calco, Italy) were used as they display robust dopamine levels in NAc shell after alcohol injection. […] All rodents were allowed to habituate to the animal facility at least one week before they entered an experiment. During housing (20 °C with 50% humidity) the rodents had free access to water and standard chow (Teklad Rodent Diet; Envigo, Madison, WI, USA). […] The sample sizes of each experiment were based on previous experience in which statistical significance has been detected. The person who conducted the experiments, and analyzed the collected data was aware of the treatment allocation. […]
Locomotor activity tests were conducted in ventilated and dim-lit (4 lux) open field arenas (420 × 420 × 200 mm; Med Associates Inc; Georgia, Vermont, USA). Infra-red beams detected distance traveled, number of jumps, vertical counts, average velocity, stereotypic counts, number of inner zone entries, and time spent in the inner/outer zones of each animal. […]
The obtained data are normally distributed and with equal variance. The data from drinking experiments were analyzed by unpaired t-test or repeated two-way ANOVA. […]

[1] = tested on: feeding and ghrelin-induced responses; settings: cited from earlier work
Text: DAG can be found in the plasma after ghrelin is secreted from the gastrointestinal tract and subsequently deacetylated in the serum. […] Based on these findings and given that ghrelin has a prominent role in mediating alcohol-related responses, we hypothesize that DAG decreases such effects in rodents.

Substance: des-acyl ghrelin (GSSFLSPEHQRVQQRKESKKPPAKLQPR; Ghrelin-28 non-acylated; UniProt Q9UBU3 24-51, looked up) [DAG, non-octanoylated form of ghrelin; purchased from Tocris (printed Tocrise Bioscience), dissolved in 0.9% NaCl]
- inhibition of NET (NET): no inhibition
- dopamine in NAc shell, DAG per se (dopamine in NAc shell; DAG 1 mg/kg without alcohol): did not affect dopamine in the NAc shell per se
- alcohol-induced dopamine release in NAc shell (effect of DAG) (dopamine in NAc shell; male rats (methods), DAG 1 mg/kg plus alcohol vs vehicle-alcohol): suppressed this enhancement (40 min P = 0.0396, 80 min P < 0.0001, 160 min P = 0.0400, 200 min P = 0.0010, 220 min P = 0.0458)
- locomotor activity, DAG per se (male and female rats; female rats): did not influence locomotor activity
- locomotor activity, DAG per se (male and female rats; male rats): did not influence locomotor activity
- effects of ghrelin on feeding, gastric emptying, body temperature, glucose and lipid metabolism ([1]; ref [30–34]): blocks the effects of ghrelin on feeding, gastric emptying, body temperature, and glucose and lipid metabolism
- food intake ([1]; ref [32]): decrease food intake
